Source: patent US7598261B2, “Spirocyclic heterocyclic derivatives and methods of their use” (Adolor Corporation, priority 2005, dated 2009)
pEC50, pKi: −log10 of the molar value.

What was measured:
[1] = target: T1, cloned human δ opioid receptor (Homo sapiens, UniProt P41143); experiment: [3H]diprenorphine receptor binding, δ opioid receptor; settings: inhibition of [3H]diprenorphine binding, read-out: affinity (Ki value), delta opioid receptor
T1 construct: expressed in transfected cells; host or cells: CHO cells (membrane preparations)
Experimental: (§1) The potencies of the compounds listed in Table 2 were determined by testing the ability of a range of concentrations of each compound to inhibit the binding of the non-selective opioid antagonist, [^3H]diprenorphine, to the cloned human μ, κ, and δ opioid receptors, expressed in separate cell lines. IC50 values were obtained by nonlinear analysis of the data using GraphPad Prism version 3.00 for Windows (GraphPad Software, San Diego). Ki values were obtained by Cheng-Prusoff corrections of IC50 values.
(§2) The receptor binding method (DeHaven and DeHaven-Hudkins, 1998) was a modification of the method of Raynor et al. (1994). After dilution in buffer A and homogenization as before, membrane proteins (10-80 μg) in 250 μL were added to mixtures containing test compound and [^3H]diprenorphine (0.5 to 1.0 nM, 40,000 to 50,000 dpm) in 250 μL of buffer A in 96-well deep-well polystyrene titer plates (Beckman). […] The filters were rinsed 4 times with 1 mL of cold 50 mM Tris HCl, pH 7.8 and radioactivity remaining on the filters determined by scintillation spectroscopy. Nonspecific binding was determined by the minimum values of the titration curves and was confirmed by separate assay wells containing 10 μM naloxone. Ki values were determined by Cheng-Prusoff corrections of IC50 values derived from nonlinear regression fits of 12 point titration curves using GraphPad Prism® version 3.00 for Windows (GraphPad Software, San Diego, Calif.).
To determine the equilibrium dissociation constant for the inhibitors (Ki), radioligand bound (cpm) in the presence of various concentrations of test compounds was measured. The concentration to give half-maximal inhibition (EC50) of radioligand binding was determined from a best nonlinear regression fit to the following equation, […]
The potencies of the compounds were determined by testing the ability of a range of concentrations of each compound to inhibit the binding of the non-selective opioid antagonist, [^3H]diprenorphine, to the cloned human μ, κ, and δ opioid receptors, expressed in separate cell lines. […]

[2] = target: T1, cloned human δ opioid receptor; experiment: Receptor-mediated [35S]GTPγS binding (agonist potency); type: biochemical; settings: stimulation of [35S]GTPγS binding, membranes with cloned human δ opioid receptor; read-out: in vitro δ agonist activity (EC50)
Experimental: The potency and efficacy of compounds at each of the receptors are assessed by modifications of the methods of Selley et al., 1997 and Traynor and Nahorski, 1995 using receptor-mediated [^35S]GTPγS binding in the same membrane preparations used to measure receptor binding. Assays are carried out in 96-well FlashPlates® (Perkin Elmer Life Sciences, Inc, Boston, Mass.). Membranes prepared from CHO cells expressing the appropriate receptor (50-100 μg of protein) are added to assay mixtures containing agonist with or without antagonists, 100 pM [^35S]GTPγS (approx. 100,000 dpm), 3.0 μM GDP, 75 mM NaCl, 15 mM MgCl2, 1.0 mM ethylene glycol-bis(β-aminoethyl ether)-N,N,N′,N′-tetracetic acid, 1.1 mM dithiothreitol, 10 μg/mL leupeptin, 10 μg/mL pepstatin A, 200 μg/mL bacitracin, and 0.5 μg/mL aprotinin in 50 mM Tris-HCl buffer, pH 7.8. After incubation at room temperature for one hour, the plates are sealed, centrifuged at 800×g in a swinging bucket rotor for 5 min and bound radioactivity determined with a TopCount microplate scintillation counter (Packard Instrument Co., Meriden, Conn.).
EC50 values for agonists are determined from nonlinear regression fits of 8- or 12-point titration curves to the 4-parameter equation for a sigmoidal dose-response with a slope factor of 1.0 using GraphPad Prism® version 3.00 for Windows (GraphPad Software, San Diego, Calif.).
The potencies of the compounds were determined by testing the ability of a range of concentrations of each compound to inhibit the binding of the non-selective opioid antagonist, [^3H]diprenorphine, to the cloned human μ, κ, and δ opioid receptors, expressed in separate cell lines. […] These compounds display high selectivity δ/κ and δ/μ (at least 10-fold). The potencies of the agonists were assessed by their abilities to stimulate [^35S]GTPγS binding to membranes containing the cloned human δ opioid receptors.

[3] = target: T2, cloned human κ opioid receptor (Homo sapiens, UniProt P41145); experiment: [3H]diprenorphine receptor binding, κ opioid receptor; settings: inhibition of [3H]diprenorphine binding, read-out: affinity (Ki value), kappa opioid receptor
T2 construct: expressed in transfected cells; host or cells: CHO cells (membrane preparations)
Experimental: as §1
as §2, with “(1994).” for “(1994). After dilution in buffer A and homogenization as before, membrane proteins (10-80 μg) in 250 μL were added to mixtures containing test compound and [^3H]diprenorphine (0.5 to 1.0 nM, 40,000 to 50,000 dpm) in 250 μL of buffer A in 96-well deep-well polystyrene titer plates (Beckman).”
(§3) To determine the equilibrium dissociation constant for the inhibitors (Ki), radioligand bound (cpm) in the presence of various concentrations of test compounds was measured. […]

[4] = target: T3, cloned human μ opioid receptor (Homo sapiens, UniProt P35372); experiment: [3H]diprenorphine receptor binding, μ opioid receptor; settings: inhibition of [3H]diprenorphine binding, read-out: affinity (Ki value), mu opioid receptor
T3 construct: expressed in transfected cells; host or cells: CHO cells (membrane preparations)
Experimental: as §1
as §2, with “(1994).” for “(1994). After dilution in buffer A and homogenization as before, membrane proteins (10-80 μg) in 250 μL were added to mixtures containing test compound and [^3H]diprenorphine (0.5 to 1.0 nM, 40,000 to 50,000 dpm) in 250 μL of buffer A in 96-well deep-well polystyrene titer plates (Beckman).”
as §3

T1 sequence (P41143 whole entry): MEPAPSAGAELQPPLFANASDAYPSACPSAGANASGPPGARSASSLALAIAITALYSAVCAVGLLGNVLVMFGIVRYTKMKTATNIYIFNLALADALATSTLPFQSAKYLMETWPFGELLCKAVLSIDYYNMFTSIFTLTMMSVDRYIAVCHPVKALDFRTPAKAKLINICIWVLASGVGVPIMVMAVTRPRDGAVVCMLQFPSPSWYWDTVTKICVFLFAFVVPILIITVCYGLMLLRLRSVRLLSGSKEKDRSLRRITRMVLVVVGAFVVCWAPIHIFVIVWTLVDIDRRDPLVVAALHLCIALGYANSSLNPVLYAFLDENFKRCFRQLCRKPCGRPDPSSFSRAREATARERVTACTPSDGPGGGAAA
T2 sequence (P41145 whole entry): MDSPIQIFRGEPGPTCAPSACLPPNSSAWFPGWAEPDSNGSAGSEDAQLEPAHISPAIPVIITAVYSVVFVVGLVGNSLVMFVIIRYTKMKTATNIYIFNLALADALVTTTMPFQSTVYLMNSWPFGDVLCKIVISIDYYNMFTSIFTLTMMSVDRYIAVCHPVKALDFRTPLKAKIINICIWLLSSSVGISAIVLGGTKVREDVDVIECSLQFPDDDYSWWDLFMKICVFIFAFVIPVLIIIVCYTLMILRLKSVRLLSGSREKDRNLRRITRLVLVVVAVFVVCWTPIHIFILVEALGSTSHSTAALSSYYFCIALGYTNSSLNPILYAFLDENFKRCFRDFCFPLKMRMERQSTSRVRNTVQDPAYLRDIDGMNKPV
T3 sequence (P35372 whole entry): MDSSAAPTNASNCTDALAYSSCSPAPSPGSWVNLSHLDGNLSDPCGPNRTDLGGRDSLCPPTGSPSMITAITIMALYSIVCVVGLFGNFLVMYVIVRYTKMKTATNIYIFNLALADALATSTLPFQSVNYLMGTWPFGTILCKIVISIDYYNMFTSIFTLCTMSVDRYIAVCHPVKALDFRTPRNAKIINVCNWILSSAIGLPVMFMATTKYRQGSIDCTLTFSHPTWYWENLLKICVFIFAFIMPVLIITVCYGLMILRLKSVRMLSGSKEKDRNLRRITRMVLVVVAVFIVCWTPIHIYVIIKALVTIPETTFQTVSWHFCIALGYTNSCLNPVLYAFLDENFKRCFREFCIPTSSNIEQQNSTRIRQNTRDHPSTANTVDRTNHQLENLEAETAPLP

SMILES | pKi [1] | pEC50 [2] | pKi [3] | pKi [4]
CCN(CC)C(=O)c1ccc(C2CC3(CCNCC3)Oc3ccc(F)cc32)c(O)c1 (single isomer, unassigned) [61A] | 9.23 | 7.77 |  | 
CCN(CC)C(=O)c1ccc(C2CC3(CCNCC3)Oc3ccc(F)cc32)c(O)c1 (single isomer, unassigned) [61B] | 7.12 | 5.89 |  | 
CC(=O)c1ccc(C2=CC3(CCNCC3)Oc3ccccc32)cc1 [33M] | 8.01 | 6.54 | < 6.00 | < 6.00
